Several values for one entry are separate records, joined by “and”; a condition that tells them apart may be missing. Equal values may be shown once. Entries after “also recorded” stand apart in the source; their conditions may differ.
Columns and labels:
[1] = test system: HFL1 (human lung fibroblast) cell line; test: MTT viability assay, inherent toxicity in non-cancerous HFL1 cells; type: cell-based; set-up: Mean % Survival: tested at 15 µM; details: for Inherent toxicity to non-cancerous HFL1 cells: 15 µM compound, 48 h, MTT, 20% reduction in viability = maximum acceptable toxicity; for Mean % Survival / % Survival (individual sample): HFL1 cells, compound alone; for Mean % Survival: mean of 8 samples; for % Survival (individual sample): single samples (trials 1-2, samples 1-4)
Description: The chemotherapeutic sensitive DU145 human prostate cancer cells and the multidrug resistant sub-line, DU145-TXR, were generous gifts from Dr. Evan Keller (University of Michigan, Ann Arbor, MI). The MDR, P-gp overexpressing DU145-TXR cells were maintained under positive selection pressure by supplementing complete medium with 10 nM paclitaxel (Acros Organics, NJ). […] The MDR, P-gp overexpressing A2780-ADR cell line was maintained under positive selection pressure by supplementing complete medium with 100 nM doxorubicin (Fisher Scientific, NJ). The non-cancerous HFL1 (human lung fibroblast) cell line cell line was a generous gift from Dr. Robert Harrod (Southern Methodist University, Dallas, TX) and was maintained in complete F12K media consisting of F12K with 10% fetal bovine serum, 100 U/mL penicillin, and 100 µg/mL streptomycin (Gibco). Flasks and 96 well plates that were used with the non-cancerous line HFL1 were pre-treated with 0.1 mg/ml Collagen Type 1 (Gibco) and rinsed with PBS (Fisher).
MTT assays measure the reduction of yellow, water soluble 3-(4,5-dimethylthiazol-2-yl)-2,5-diphenyltetrazolium bromide (MTT) to blue, insoluble formazan crystals by cellular reductase processes in living cells. Cells were trypsinized from monolayers and seeded in complete medium in 96 well plates. Cancerous cell lines (DU145, DU145-TXR, A2780, A2780-ADR) were seeded at 3,000 cells per well in complete RPMI medium. The non-cancerous HFL1 line was seeded at 4,000 cells per well in complete F12K medium, in collagen-treated plates (Collagen Type 1, Gibco). Cells were incubated with experimental compounds for 48 hours at 37 °C and 5% CO2 in a humidified incubator. At 48 hours, MTT was added (20 µL/well of 5 mg/mL MTT in PBS) to each well. After incubation for 4 hours, the media was removed, and the formazan crystals were dissolved in 100 µL DMSO per well. Plates containing the semi-adherent A2780 or A2780-ADR lines were spun at 1400 rpm for 3 minutes prior to aspiration of media, and the addition of DMSO. Plates were shaken for 10 minutes at 500 rpm on an Orbital shaker (LabDoctor from MidSci, St Louis, MO). The absorbance was measured at 570 nm using a Bio-Tek Cytation 5 (Bio-Tek, Winooski, VT). The measured absorbance value was correlated with the number of metabolically active cells in that well, corrected for absorbance of media. The percent of cell viability (termed ‘survival’ here) was calculated as a percentage of survival of the control condition, which refers to vehicle-treated (DMSO as vehicle) cells, or vehicle-and-chemotherapeutic-treated cells, if testing a compound’s ability to re-sensitize cells to a chemotherapeutic. Percent survival was calculated using the following equation:
% Survival=100 × absorbance of experimental cells/mean absorbance of control treated cells
For DU145-TXR, DU145, HFL1 and A2780 cells – data are the mean ± one standard deviation, 8 samples per compound, from at least two independent trials per compound. […] For A2780-ADR cells, data are the mean ± one standard deviation with 12 samples per compound, from at least two independent trials per compound.
If a P-gp inhibitor is intrinsically toxic to non-cancerous cells, it is more likely to be participating in undesirable off-target interactions. The top compounds from the screens shown above were screened for inherent toxicity using the non-cancerous HFL1 (human lung fibroblast) cell line. HFL1 cells were incubated with 15 µM compound for 48 hours, after which cell viability was assessed using MTT cell viability assays. A 20% reduction in cell viability (compared to DMSO-treated cells) was considered the maximum acceptable toxicity (see dotted line). The chemotherapeutic daunorubicin was included as a positive control for toxicity.
The top compounds from previous screens were tested against the non-cancerous HFL1 cell line.

[2] = target: T1, P-gp (Homo sapiens, UniProt P08183); test: Daunorubicin accumulation (fluorescence) assay in DU145-TXR cells; type: cell-based; details: for Significance (DAU + compound vs DAU alone): Student's T test of the mean; for Effect on DAU fluorescence / intracellular DAU retention: DU145-TXR, 10 µM compound + 10 µM DAU, 2 h
T1 construct: The MDR, P-gp overexpressing DU145-TXR cells were maintained under positive selection pressure; endogenous in cells; host or cells: DU145-TXR (paclitaxel-resistant sub-line of DU145 human prostate cancer cells)
T1 sequence (P08183 whole entry): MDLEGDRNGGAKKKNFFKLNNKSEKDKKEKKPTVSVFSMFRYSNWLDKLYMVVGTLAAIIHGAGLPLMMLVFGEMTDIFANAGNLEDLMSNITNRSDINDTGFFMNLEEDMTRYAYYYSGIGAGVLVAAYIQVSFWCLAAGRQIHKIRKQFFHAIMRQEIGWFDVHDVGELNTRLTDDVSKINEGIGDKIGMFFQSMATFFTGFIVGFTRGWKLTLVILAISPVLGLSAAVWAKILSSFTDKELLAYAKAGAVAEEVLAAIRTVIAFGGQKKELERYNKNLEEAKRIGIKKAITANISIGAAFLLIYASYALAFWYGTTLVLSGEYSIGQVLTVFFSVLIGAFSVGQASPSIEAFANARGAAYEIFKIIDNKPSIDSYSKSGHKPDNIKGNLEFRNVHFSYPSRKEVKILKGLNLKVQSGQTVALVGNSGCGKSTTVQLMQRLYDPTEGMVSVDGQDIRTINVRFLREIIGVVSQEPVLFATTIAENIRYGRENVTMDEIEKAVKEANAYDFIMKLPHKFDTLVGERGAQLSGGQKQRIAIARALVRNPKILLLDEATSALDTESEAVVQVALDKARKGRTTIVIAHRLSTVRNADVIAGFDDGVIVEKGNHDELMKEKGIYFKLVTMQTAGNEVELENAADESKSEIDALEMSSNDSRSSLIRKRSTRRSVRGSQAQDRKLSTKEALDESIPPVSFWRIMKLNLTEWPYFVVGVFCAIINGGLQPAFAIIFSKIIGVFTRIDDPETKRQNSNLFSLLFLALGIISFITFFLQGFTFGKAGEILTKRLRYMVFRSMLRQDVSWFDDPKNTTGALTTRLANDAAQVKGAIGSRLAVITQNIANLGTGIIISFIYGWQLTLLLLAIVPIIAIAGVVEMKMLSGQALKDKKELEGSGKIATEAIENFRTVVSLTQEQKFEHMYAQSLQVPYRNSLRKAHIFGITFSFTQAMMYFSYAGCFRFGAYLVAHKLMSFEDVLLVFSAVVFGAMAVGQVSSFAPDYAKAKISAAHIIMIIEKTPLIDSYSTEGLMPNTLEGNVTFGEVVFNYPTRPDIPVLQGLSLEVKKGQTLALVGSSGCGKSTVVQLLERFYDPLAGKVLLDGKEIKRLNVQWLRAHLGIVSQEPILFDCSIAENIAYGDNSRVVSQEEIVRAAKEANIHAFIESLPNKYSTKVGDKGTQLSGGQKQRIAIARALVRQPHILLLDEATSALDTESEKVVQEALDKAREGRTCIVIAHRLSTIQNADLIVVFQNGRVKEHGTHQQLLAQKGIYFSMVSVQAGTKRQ
Description: These assays are based upon those reported in [9]. DU145-TXR cells were seeded in 96 well plates in complete RPMI medium at 15,000 cells per well. Cells were allowed to grow for 48 hours in a humidified incubator at 37 °C and 5% CO2. After 48 hours, media was replaced with fresh complete RPMI medium. Cells were treated with 10 µM of experimental compound with or without 10 µM daunorubicin (DAU). After a 2-hour incubation at 37 °C and 5% CO2 in a humidified incubator, media was removed with a vacuum aspirator, and cells were washed twice with ice-cold phosphate buffered saline (PBS) solution. Cells were lysed in PBS containing 0.5% SDS and 0.5% Triton X-100 and shaken on an Orbital Shaker for 10 min at 500 rpm. […] Data are the mean ± one standard deviation from three independent experiments, 3 samples per experiment. Statistical significance was determined with a Student’s T test in GraphPad prism.
Δ DAU Fluorescence= Fluorescence of (Compound+DAU) treated cells/Fluorescence of DAU treated cells
These assays used the P-gp highly overexpressing DU145-TXR cell line. In this assay, the intrinsic fluorescence of DAU was used to quantify its relative concentration in the cell. An increase in fluorescence correlates with an increase in the intracellular accumulation of DAU. […] Cells were treated with 10 µM of experimental compound with or without 10 µM DAU. After a 2-hour incubation, cells were washed and lysed, and the total fluorescence of DAU in each well was quantified.
Fig 5 Change in fluorescence of DAU in the presence of experimental compounds. Fold change in fluorescence of the P-gp substrate Daunorubicin (DAU) in the presence or absence of experimental compounds or known P-gp modulators. Cells were treated with 10 µM compound in the presence or absence of 10 µM DAU. After washing and lysing the cells, the intracellular DAU fluorescence was measured and expressed as a fold change relative to the fluorescence of DU145-TXR cells treated with DAU alone. […] Three samples per trial, three independent trials. Significance was determined using a Student’s T test of the mean by comparing fluorescence of DAU and compound to that of DAU alone; P > 0.05 = N.S., P < 0.05 = *, P < 0.01 = **, P < 0.001 = ***, P < 0.0001 = ****. Data also shown in S4 Fig.

[3] = test system: P-gp; set-up: method as in earlier work; details: ref [66-68]; cited from earlier work

Structure (SMILES) | Inherent toxicity to non-cancerous HFL1 cells [1] | Mean % Survival [1] | % Survival (individual sample) [1] | Significance (DAU + compound vs DAU alone) [2] | Effect on DAU fluorescence / intracellular DAU retention [2] | P-gp Substrate? (known transport substrate of P-gp) [3]
COc1cccc(N2CCN(c3ccc4nnc(CCC(=O)Nc5ccc(F)c(F)c5)n4n3)CC2)c1 [Compound 101, COc1cccc(c1)N1CCN(CC1)c1ccc2nnc(CCC(=O)Nc3ccc(F)c(F)c3)n2n1] | either ‘non-toxic’ or ‘within acceptable limits’ of toxicity | 100.9% | 103% | **** (P < 0.0001 = ****) | – | –
O=C(c1nc(-c2ccccn2)no1)N1CCN(c2nsc3ccccc23)CC1 [Compound 124, O=C(N1CCN(CC1)c1nsc2ccccc12)c1nc(no1)-c1ccccn1] | either ‘non-toxic’ or ‘within acceptable limits’ of toxicity | 84.6% | 89% | – | – | –
Cc1onc(-c2ccccc2)c1-c1nnc(Cn2cnc3c(oc4ccccc43)c2=O)o1 [Compound 78, Cc1onc(c1-c1nnc(Cn2cnc3c4ccccc4oc3c2=O)o1)-c1ccccc1] | either ‘non-toxic’ or ‘within acceptable limits’ of toxicity | 99.6% | 102% | * (P < 0.05 = *) | significant decrease in fluorescence; also recorded: did not cause an increase in intracellular DAU retention | –
O=C(c1nc(-c2ccc3cc[nH]c3c2)no1)N1CCN(c2nsc3ccccc23)CC1 [Compound 70, O=C(N1CCN(CC1)c1nsc2ccccc12)c1nc(no1)-c1ccc2cc[nH]c2c1] | either ‘non-toxic’ or ‘within acceptable limits’ of toxicity | 81.4% | 81% and 85% | * (P < 0.05 = *) | – | –
Cc1ccc(-c2noc(-c3cn(Cc4ccc(NS(=O)(=O)c5ccccc5F)cc4)cn3)n2)cc1 [Compound 103, Cc1ccc(cc1)-c1noc(n1)-c1cn(Cc2ccc(NS(=O)(=O)c3ccccc3F)cc2)cn1] | either ‘non-toxic’ or ‘within acceptable limits’ of toxicity | 93.4% | – | ** (P < 0.01 = **) | – | –
O=S(=O)(Cc1nc2ccccc2n1CC(O)c1ccc(Cl)cc1)c1ccccc1 (stereo not shown) [Compound 97, OC(Cn1c(CS(=O)(=O)c2ccccc2)nc2ccccc12)c1ccc(Cl)cc1] | either ‘non-toxic’ or ‘within acceptable limits’ of toxicity | 84.9% | 85% | **** (P < 0.0001 = ****) | – | –
O=S(=O)(CCSc1nnc(-c2ccccc2)c2ccccc12)c1ccccc1 [Compound 96, O=S(=O)(CCSc1nnc(-c2ccccc2)c2ccccc12)c1ccccc1] | either ‘non-toxic’ or ‘within acceptable limits’ of toxicity | 92.7% | 91% | **** (P < 0.0001 = ****) | – | –
O=C(NCc1cccc(F)c1)c1nnn2c1Sc1c(C(=O)NCc3cccc(F)c3)nnn1CC2 [Compound 122, Fc1cccc(CNC(=O)c2nnn3CCn4nnc(C(=O)NCc5cccc(F)c5)c4Sc23)c1] | either ‘non-toxic’ or ‘within acceptable limits’ of toxicity | 79.7% | – | – | – | –
COc1cc2c(cc1OC)CN(CCc1ccc(NC(=O)c3cc(OC)c(OC)cc3NC(=O)c3cnc4ccccc4c3)cc1)CC2 [Tariquidar, reference compound] | – | – | – | **** (P < 0.0001 = ****) | – | Yes
Cc1onc(-c2ccccc2)c1-c1nnc(Cn2cnc3ccccc3c2=O)o1 [Compound 111, Cc1onc(c1-c1nnc(Cn2cnc3ccccc3c2=O)o1)-c1ccccc1] | either ‘non-toxic’ or ‘within acceptable limits’ of toxicity | 96.0% | 92% | N.S. (P > 0.05 = N.S.) | did not cause an increase in intracellular DAU retention | –
Cn1cnnc1SCc1c(C(=O)O)nnn1-c1nonc1N [Compound 59, Cn1cnnc1SCc1c(nnn1-c1nonc1N)C(O)=O] | – | – | – | N.S. (P > 0.05 = N.S.) | – | –

From publication PMC12349723, “Computationally accelerated identification of P-glycoprotein inhibitors” (PLOS One, 2025)
